The record followed here is EP0432677B1, “N-(pyrrolo[2,3-d]pyrimidin-3-ylacyl)-glutamic acid derivatives” (THE TRUSTEES OF PRINCETON UNIVERSITY, priority 1989, dated 1991).

In brackets after ≈: the same amount, converted by molar mass. Entries after “also recorded” stand apart in the source; their conditions may differ. Some results are limits rather than exact numbers.

In one experiment the test system is CCRF-CEM. The experiment in a line: Representative inhibition values against CCRF-CEM cell cultures. The experiment is classed as cell-based. Conditions: Homo sapiens.
Experiment [1] relates to Cem human lymphoblastic leukemia cells. The experiment can be described thus: Inhibition of growth of Cem human lymphoblastic leukemia cells, 72 hours incubation, Coulter Counter particle count (Example 11). It counts as cell-based. Conditions: for activity at 0.015 µg/mL: concentration 0.015 µg/ml; for activity at 0.045 µg/mL: concentration 0.045 µg/ml; for activity at 0.137 µg/mL: concentration 0.137 µg/ml; for activity at 0.411 µg/mL: concentration 0.411 µg/ml; for activity at 1.23 µg/mL: concentration 1.23 µg/ml; for activity at 3.7 µg/mL: concentration 3.7 µg/ml; for activity at 11.1 µg/mL: concentration 11.1 µg/ml; for activity at 33.3 µg/mL: concentration 33.3 µg/ml; for IC50: concentration inhibiting 50% of cellular growth, read-out: relative overall in vitro inhibitory concentration (IC50). Here is the method: Each of the compounds was dissolved in 100% dimethylsulfoxide. Dilutions of each compound were prepared to yield a range of test concentrations as hereinafter indicated.
Cem human lymphoblastic leukemia cells are grown in RPMI 1640 media (MABio), supplemented with 10% dialyzed fetal bovine serum (Gibco) at 37°C in humidified atmospheric conditions of 95% air and 5% CO₂. The cells are grown in static suspension (T-flask, Corning) maintained in log phase at a concentration of 3-7 x 10⁵ cells/ml.
(i) 10 µl of a test compound is placed in a well (Costar 24 well clusters). This step is repeated for each test concentration of the compounds. (ii) 500 µl of serum-free media is added to each well. (iii) A sterile bottle containing RPMI 1640 media supplemented with 10% dialyzed fetal bovine serum, 16 mM hepes and 8 mM mops buffers and 3 x 10⁴ cells/ml is placed on a magnetic stirrer. A Wheaton peristaltic pump is used to deliver 1.5 ml of this cell suspension to each well. The resulting final volume delivered to each well is 2.0 ml at a cellular concentration of […]. (iv) The cluster wells are incubated at 37°C in a humidified incubator (95% air, 5% CO₂) for 72 hours. (v) After the incubation period, measurements of each well are taken using the ZB1 Coulter Counter particle counter and the IC₅₀ (concentration inhibiting 50% of cellular growth) is determined. (vi) The results of this test are as follows: Table I

In the next experiment the test system is tumor cells. The experiment in a line: In vivo antitumor activity in mice inoculated with tumor cells, eight daily i.p. doses. The note with it: for % Inhibition / Tumor Weight: eight daily doses; for Tumor Weight: mean ± standard deviation. Set-up: species or system strain DBA/2. The protocol:
Female mice, strain DBA/2, were inoculated with tumor cells. Treatment with the test compounds began the day following inoculation. The treatment consisted of eight daily doses i.p. (intraperitoneal) of either Compounds A and C for eight consecutive days. Tumor size was measured on the day following the last day of treatment to determine the inhibitory effect of the test compounds on tumor growth.

The test system of experiment [2] is Cem human lymphoblastic leukemia cells. The experiment in a line: Reversal studies to identify the point of enzymatic inhibition (Example 11). The experiment is classed as cell-based. Conditions: from reversal with 100 µM hypoxanthine and/or 5 µM thymidine. The protocol:
The mechanism of action of each compound was determined through further tests employing so-called "reversal" studies. These studies supplied compounds or precursors which, alone or together, identified the specific point of enzymatic inhibition. • (a) Hypoxanthine - Hypoxanthine will reverse the inhibitory effects of a compound if the compound functions as an inhibitor of purine de novo synthesis. The availability of hypoxanthine thus allows cells to bypass purine de novo synthesis. • (b) Thymidine - Thymidine alone will reverse the inhibitory effects of a compound if the compound functions as a specific inhibitor of thymidylate synthetase. • (c) Hypoxanthine and Thymidine - If a compound is determined in (a) to not be an inhibitor of purine de novo synthesis, and in (b) to not be an inhibitor of thymidilate synthetase, then a reversal study utilizing hypoxanthine and thymidine, in combination, will determine whether the compound can produce inhibition of both pathways. Thus if this combination reverses the inhibitory effects of a compound, the compound most likely functions as an inhibitor of dihydrofolate reductase (involved in both purine and pyrimidine biosynthesis).
In each case, the basic procedure outlined above was followed, modified in that 250 µl of the reversal compound [or of each reversal compound in […]] was added to the test wells, and the amount of serumless media added to each test well was decreased [or entirely eliminated in (b)] by the same amount. The reversal compounds were prepared as 8X stock solutions in phosphate buffered saline (sterile filtered through a 0.2 µ acrodisc filter - Gelman) so that 250 µl of the stock solution would yield a final concentration of 100 µM hypoxanthine and/or 5 µM thymidine.

Where [3] appears, read: Homo sapiens, CCRF-CEM, 72 hours, read-out: Cellular Growth (%).
Setting [4] is: Homo sapiens, CCRF-CEM, 72 hours.
Where [5] appears, read: Table VI Run 1, dose 12.50 mg/kg i.p.
The mark [6] stands for this setting: Table VI Run 1, dose 25.00 mg/kg i.p.
The mark [7] stands for this setting: Table VI Run 1, dose 50.00 mg/kg i.p.
The mark [8] stands for this setting: Table VI Run 1, dose 100.00 mg/kg i.p.
Setting [9] is: Table VI Run 1, dose 200.00 mg/kg i.p.
Where [10] appears, read: Table VI Run 2, dose 0.6256 mg/kg i.p.
The mark [11] stands for this setting: Table VI Run 2, dose 1.25 mg/kg i.p.
Setting [12] is: Table VI Run 2, dose 5 mg/kg i.p.
The mark [13] stands for this setting: Table VI Run 2, dose 10 mg/kg i.p.
The mark [14] stands for this setting: Table VI Run 2, dose 20 mg/kg i.p.
Where [15] appears, read: Table VI Run 2, dose 40 mg/kg i.p.

Compound `Nc1nc(O)c2c(CCc3cccc(F)c3)c[nH]c2n1` gave an IC50 in the experiment with CCRF-CEM of more than 20 µg/mL.
On the same count and under the same terms, with `O=C(O)CC[C@H](NC(=O)c1ccc(CCc2c[nH]c3ncnc(O)c23)cc1)C(=O)O` [N-{4-[2-(4-hydroxypyrrolo[2,3-d]pyrimidin-3-yl)ethyl]benzoyl}-L-glutamic acid] the figure was 1.2 µg/mL (≈ 2.91 µM); with `Nc1nc(O)c2c(CCc3ccc(C(=O)O)cc3)c[nH]c2n1`, more than 20 µg/mL; with `Nc1nc(O)c2c(CCc3ccc(C(=O)N[C@@H](CCC(=O)O)C(=O)O)c(F)c3)c[nH]c2n1`, 0.008 µg/mL (≈ 0.018 µM).
In general, % Inhibition refers to the relative decrease from the control value, in per cent. Higher therefore signals strong suppression. On to `Nc1nc(O)c2c(CCc3ccc(C(=O)NC(CCC(=O)O)C(=O)O)cc3)c[nH]c2n1` (stereo not shown) [Compound C], for which the activity at 0.005 µg/mL in experiment [1] (Homo sapiens, CCRF-CEM, concentration 0.005 µg/ml, 72 hours, read-out: Cellular Growth (%)) turned out to be 96%. Further, the activity at 0.015 µg/mL in experiment [1] (setting [3]) turned out to be 25%. Further, the activity at 0.045 µg/mL in experiment [1] (setting [3]) was 14%. The activity at 0.137 µg/mL in experiment [1] (setting [3]) is 14%. In addition, the activity at 0.411 µg/mL in experiment [1] (setting [3]) was 13%. The activity at 1.23 µg/mL in experiment [1] (setting [3]) stood at 14%. Moreover, the activity at 3.7 µg/mL in experiment [1] (setting [3]) came to 13%. Moreover, in experiment [1] (setting [3]), the activity at 11.1 µg/mL stood at 12%. Further, the activity at 33.3 µg/mL in experiment [1] (setting [3]) worked out at 12%. For the same compound, the activity at 100 µg/mL in experiment [1] (Homo sapiens, CCRF-CEM, concentration 100.0 µg/ml, 72 hours, read-out: Cellular Growth (%)) stood at 14%. Besides, in experiment [1] (setting [4]), the IC50 was found to be 0.007 µg/mL (≈ 0.0164 µM). Moreover, in experiment [1] (in vitro, relative to Compound A), the “more active in vitro than Compound A by a factor” value is on record as “at least 25 fold”. Further, the “% Inhibition” value with tumor cells (setting [5]) came out at 98%; in the experiment with tumor cells (setting [6]), 100%; with tumor cells (setting [7]) it was 100%; with tumor cells (setting [8]), 100%; with tumor cells (setting [9]) it was 100%; with tumor cells (setting [10]) it was 0%. Besides, the “% Inhibition” value with tumor cells (setting [11]) is given as 0%; in the experiment on tumor cells (setting [12]), 83%; with tumor cells (setting [13]), 97%; in the experiment on tumor cells (setting [14]), 100%; in the experiment with tumor cells (setting [15]), 100%. The “Tumor Weight” value in the experiment with tumor cells (setting [5]) is 102 ± 166 mg; in the experiment with tumor cells (setting [6]), 0 ± 0 mg; in the experiment on tumor cells (setting [7]), 0 ± 0 mg; with tumor cells (setting [8]) it was 0 ± 0 mg; in the experiment on tumor cells (setting [9]), 0 ± 0 mg; in the experiment on tumor cells (setting [10]), 7381 ± 2397 mg. Besides, the “Tumor Weight” value in the experiment with tumor cells (setting [11]) was found to be 6682 ± 2300 mg; with tumor cells (Table VI Run 2, dose 2.5 mg/kg i.p.), 2908 ± 1948 mg; in the experiment with tumor cells (setting [12]) it was 1034 ± 657 mg; in the experiment on tumor cells (setting [13]), 196 ± 152 mg; in the experiment with tumor cells (setting [14]), 18 ± 57 mg; in the experiment with tumor cells (setting [15]), 0 ± 0 mg. The “inhibitory effect on tumor growth in vivo” value in the experiment on tumor cells (overall assessment in words) is listed as “marked in vivo inhibitory effect; also recorded: highly active”. Also, the “mechanism of action (point of enzymatic inhibition)” value in experiment [2] is reported as “appear to inhibit TS”.
Regarding `Nc1nc(O)c2c(CCCc3ccc(C(=O)NC(CCC(=O)O)C(=O)O)cc3)c[nH]c2n1` (stereo not shown) [Compound B], in experiment [1] (setting [3]), the activity at 0.015 µg/mL was 76.9%, the activity at 0.045 µg/mL came to 33.5%, the activity at 0.137 µg/mL amounted to 17.7% and the activity at 0.411 µg/mL stood at 13%. Also, in experiment [1] (setting [3]), the activity at 1.23 µg/mL amounted to 11.3%, the activity at 3.7 µg/mL was found to be 10.4%, the activity at 11.1 µg/mL is 9.6% and the activity at 33.3 µg/mL worked out at 10.8%. Also, in experiment [1] (setting [4]), the IC50 is 0.03 µg/mL (≈ 0.068 µM). Moreover, the “mechanism of action (point of enzymatic inhibition)” value in experiment [2] is “inhibition of DHFR rather than TS”.
`COc1ccc(CCc2c[nH]c3nc(N)nc(O)c23)cc1` [3-[2-(4-methoxyphenyl)ethyl]-4-hydroxy-6-aminopyrrolo[2,3-d]pyrimidine] yielded an IC50 in the experiment with CCRF-CEM of more than 20 µg/mL.
On the same count and under the same terms, with `Cc1nc(O)c2c(CCc3ccc(C(=O)N[C@@H](CCC(=O)O)C(=O)O)cc3)c[nH]c2n1` [N-{4-[2-(4-hydroxy-6-methylpyrrolo[2,3-d]pyrimidin-3-yl)ethyl]-benzoyl}-L-glutamic acid] the figure was 0.0084 µg/mL (≈ 0.0197 µM); with `Nc1nc(O)c2c(CCc3ccc(C(=O)N[C@@H](CCC(=O)O)C(=O)O)s3)c[nH]c2n1` [N-{5-[2-(4-hydroxy-6-aminopyrrolo[2,3-d]-pyrimidin-3-yl)ethyl]thien-2-ylcarbonyl}-L-glutamic acid], 0.025 µg/mL (≈ 0.0577 µM); with `Nc1nc(O)c2c(CCc3ccc(C(=O)N[C@@H](CCC(=O)O)C(=O)O)cc3F)c[nH]c2n1`, 0.019 µg/mL (≈ 0.0427 µM).
